# Experimental data from PMC7865522, “Analyzing Kinase Similarity in Small Molecule and Protein Structural Space to Explore the Limits of Multi-Target Screening” (Molecules, 2021).
# Key:
# panel of 290 kinases = biological target: panel of 290 kinases; design: method as in PMID 18183025; conditions: cited from earlier work
# PI3K [1] = biological target: T1, PI3K (Homo sapiens, UniProt P42336); assay: Eurofins in vitro kinase inhibition assay (HTRF, PIP3 displacement); format: biochemical; design: purchased Eurofins Cerep (contract assay); conditions: compound 20 µM; mean (SD); above 50% significant, 25-50% weak
# In short: (§1)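 Read-out is percent inhibition of control activity, given as mean (SD), with each compound tested at 20 µM. EGFR, ErbB2 and BRAF phosphorylation of a substrate analog was measured in the presence of ATP, while PI3K product PIP3 was quantified by HTRF competition with biotinylated PIP3.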
# LCK = biological target: T2, LCK (Homo sapiens, UniProt P06239); assay: DiscoverX KINOMEscan competition binding assay; conditions: compound 10 µM; lower values = higher affinity; below 35% = significant binding
# T2 construct: purchased DiscoverX (KINOMEscan service); host or cells: E. coli BL21-derived host (T7 phage) or HEK-293
# In short: (§2)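 Read-out is qPCR of kinase eluted from an immobilized-ligand affinity resin after competition with test compound (10 µM), expressed as % of control; lower values mean stronger binding. Kinase came as phage-tagged or HEK-293-derived DNA-tagged protein.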
# ErbB2 [2] = biological target: T3, ErbB2 (Homo sapiens, UniProt P04626); assay: DiscoverX KINOMEscan competition binding assay; conditions: compound 10 µM; lower values = higher affinity; below 35% = significant binding
# T3 construct: purchased DiscoverX (KINOMEscan service); host or cells: E. coli BL21-derived host (T7 phage) or HEK-293
# In short: as §2
# VEGFR2 = biological target: T4, VEGFR2 (Homo sapiens, UniProt P35968); assay: DiscoverX KINOMEscan competition binding assay; conditions: compound 10 µM; lower values = higher affinity; below 35% = significant binding
# T4 construct: purchased DiscoverX (KINOMEscan service); host or cells: E. coli BL21-derived host (T7 phage) or HEK-293
# In short: as §2
# p38α = biological target: T5, p38α (Homo sapiens, UniProt Q16539); assay: DiscoverX KINOMEscan competition binding assay; conditions: compound 10 µM; lower values = higher affinity; below 35% = significant binding
# T5 construct: purchased DiscoverX (KINOMEscan service); host or cells: E. coli BL21-derived host (T7 phage) or HEK-293
# In short: as §2
# CDK2 = biological target: T6, CDK2 (Homo sapiens, UniProt P24941); assay: DiscoverX KINOMEscan competition binding assay; conditions: compound 10 µM; lower values = higher affinity; below 35% = significant binding
# T6 construct: purchased DiscoverX (KINOMEscan service); host or cells: E. coli BL21-derived host (T7 phage) or HEK-293
# In short: as §2
# EGFR [3] = biological target: T7, EGFR (Homo sapiens, UniProt P00533); assay: DiscoverX KINOMEscan competition binding assay; conditions: compound 10 µM; lower values = higher affinity; below 35% = significant binding
# T7 construct: purchased DiscoverX (KINOMEscan service); host or cells: E. coli BL21-derived host (T7 phage) or HEK-293
# In short: as §2
# BRAF [4] = biological target: T8, BRAF (Homo sapiens, UniProt P15056); assay: DiscoverX KINOMEscan competition binding assay; conditions: compound 10 µM; lower values = higher affinity; below 35% = significant binding
# T8 construct: purchased DiscoverX (KINOMEscan service); host or cells: E. coli BL21-derived host (T7 phage) or HEK-293
# In short: as §2
# MET = biological target: T9, MET (Homo sapiens, UniProt P08581); assay: DiscoverX KINOMEscan competition binding assay; conditions: compound 10 µM; lower values = higher affinity; below 35% = significant binding
# T9 construct: purchased DiscoverX (KINOMEscan service); host or cells: E. coli BL21-derived host (T7 phage) or HEK-293
# In short: as §2
# ErbB2 [5] = biological target: T3, ErbB2; assay: Eurofins in vitro kinase inhibition assay; format: biochemical; conditions: compound 20 µM; mean (SD); above 50% significant, 25-50% weak
# In short: as §1
# EGFR [6] = biological target: T7, EGFR; assay: Eurofins in vitro kinase inhibition assay; format: biochemical; conditions: compound 20 µM; mean (SD); above 50% significant, 25-50% weak
# In short: as §1
# BRAF [7] = biological target: T8, BRAF; assay: Eurofins in vitro kinase inhibition assay; format: biochemical; conditions: compound 20 µM; mean (SD); above 50% significant, 25-50% weak
# In short: as §1
# PI3K [8] = biological target: T1, PI3K; assay: DiscoverX KINOMEscan competition binding assay; design: purchased DiscoverX (KINOMEscan service); host or cells: E. coli BL21-derived host (T7 phage) or HEK-293; conditions: compound 10 µM; lower values = higher affinity; below 35% = significant binding
# In short: as §2
# T4 sequence (P35968 20-1356): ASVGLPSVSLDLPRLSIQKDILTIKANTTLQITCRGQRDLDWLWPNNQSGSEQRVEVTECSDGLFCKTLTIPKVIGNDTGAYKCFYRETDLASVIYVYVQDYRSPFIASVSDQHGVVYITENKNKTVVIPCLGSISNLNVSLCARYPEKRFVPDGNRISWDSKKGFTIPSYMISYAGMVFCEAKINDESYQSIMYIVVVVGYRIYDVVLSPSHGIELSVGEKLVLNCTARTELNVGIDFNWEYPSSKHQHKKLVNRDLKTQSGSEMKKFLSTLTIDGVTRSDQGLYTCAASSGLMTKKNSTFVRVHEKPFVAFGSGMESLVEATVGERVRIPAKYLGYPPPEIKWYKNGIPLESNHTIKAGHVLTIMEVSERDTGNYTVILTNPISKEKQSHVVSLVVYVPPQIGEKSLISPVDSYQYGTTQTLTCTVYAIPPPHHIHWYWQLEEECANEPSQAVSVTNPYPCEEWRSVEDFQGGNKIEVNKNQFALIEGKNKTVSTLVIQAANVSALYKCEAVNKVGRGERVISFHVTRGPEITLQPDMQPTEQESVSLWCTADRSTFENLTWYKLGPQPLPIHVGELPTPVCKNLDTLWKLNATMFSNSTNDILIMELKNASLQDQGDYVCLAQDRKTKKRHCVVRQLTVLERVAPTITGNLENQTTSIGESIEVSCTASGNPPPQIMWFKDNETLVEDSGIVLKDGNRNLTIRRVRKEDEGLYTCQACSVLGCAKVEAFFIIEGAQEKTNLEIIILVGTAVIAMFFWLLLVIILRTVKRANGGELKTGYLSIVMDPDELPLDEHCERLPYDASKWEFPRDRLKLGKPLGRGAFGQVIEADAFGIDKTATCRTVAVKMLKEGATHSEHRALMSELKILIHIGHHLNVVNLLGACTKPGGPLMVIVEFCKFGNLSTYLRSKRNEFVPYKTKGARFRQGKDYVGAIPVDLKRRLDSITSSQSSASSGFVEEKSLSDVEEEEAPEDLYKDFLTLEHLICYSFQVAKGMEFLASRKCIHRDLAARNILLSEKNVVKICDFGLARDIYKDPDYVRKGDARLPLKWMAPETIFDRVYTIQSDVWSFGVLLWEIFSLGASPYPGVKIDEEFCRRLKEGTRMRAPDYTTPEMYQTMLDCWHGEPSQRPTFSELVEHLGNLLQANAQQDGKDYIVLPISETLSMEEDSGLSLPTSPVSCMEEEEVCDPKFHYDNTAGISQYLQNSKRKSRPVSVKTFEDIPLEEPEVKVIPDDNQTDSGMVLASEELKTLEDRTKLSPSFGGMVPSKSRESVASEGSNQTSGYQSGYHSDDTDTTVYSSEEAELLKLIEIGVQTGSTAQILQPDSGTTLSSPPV
# T7 sequence (P00533 25-1210): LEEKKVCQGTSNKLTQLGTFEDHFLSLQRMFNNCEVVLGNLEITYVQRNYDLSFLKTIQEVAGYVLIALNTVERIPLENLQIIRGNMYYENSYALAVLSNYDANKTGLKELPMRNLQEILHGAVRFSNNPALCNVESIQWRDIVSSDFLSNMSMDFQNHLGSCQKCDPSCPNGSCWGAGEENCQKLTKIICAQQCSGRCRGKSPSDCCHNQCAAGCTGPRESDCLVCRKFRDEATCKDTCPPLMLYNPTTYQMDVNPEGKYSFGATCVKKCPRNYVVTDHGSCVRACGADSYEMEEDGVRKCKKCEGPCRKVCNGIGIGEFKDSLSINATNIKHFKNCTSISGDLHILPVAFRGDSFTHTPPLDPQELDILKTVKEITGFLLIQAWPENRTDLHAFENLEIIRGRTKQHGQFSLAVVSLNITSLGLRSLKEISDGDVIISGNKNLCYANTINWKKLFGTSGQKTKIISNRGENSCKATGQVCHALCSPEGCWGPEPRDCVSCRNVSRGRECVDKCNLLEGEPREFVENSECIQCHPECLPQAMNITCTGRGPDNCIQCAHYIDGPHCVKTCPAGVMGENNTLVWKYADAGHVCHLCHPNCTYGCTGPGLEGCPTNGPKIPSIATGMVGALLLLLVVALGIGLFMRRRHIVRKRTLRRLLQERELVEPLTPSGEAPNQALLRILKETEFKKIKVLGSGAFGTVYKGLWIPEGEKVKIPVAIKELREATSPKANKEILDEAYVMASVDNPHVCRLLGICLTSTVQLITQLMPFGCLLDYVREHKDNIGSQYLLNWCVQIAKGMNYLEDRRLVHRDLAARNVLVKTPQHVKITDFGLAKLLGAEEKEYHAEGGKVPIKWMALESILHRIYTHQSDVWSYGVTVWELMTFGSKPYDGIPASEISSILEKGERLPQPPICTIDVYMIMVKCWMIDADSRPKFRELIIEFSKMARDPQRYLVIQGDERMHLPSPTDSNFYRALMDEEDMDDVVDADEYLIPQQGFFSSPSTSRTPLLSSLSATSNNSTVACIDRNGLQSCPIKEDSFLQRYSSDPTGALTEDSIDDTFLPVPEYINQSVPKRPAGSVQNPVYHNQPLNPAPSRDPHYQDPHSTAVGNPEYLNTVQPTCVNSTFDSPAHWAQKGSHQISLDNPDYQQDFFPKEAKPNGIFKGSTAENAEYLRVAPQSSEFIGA
# T5 sequence (Q16539 whole entry): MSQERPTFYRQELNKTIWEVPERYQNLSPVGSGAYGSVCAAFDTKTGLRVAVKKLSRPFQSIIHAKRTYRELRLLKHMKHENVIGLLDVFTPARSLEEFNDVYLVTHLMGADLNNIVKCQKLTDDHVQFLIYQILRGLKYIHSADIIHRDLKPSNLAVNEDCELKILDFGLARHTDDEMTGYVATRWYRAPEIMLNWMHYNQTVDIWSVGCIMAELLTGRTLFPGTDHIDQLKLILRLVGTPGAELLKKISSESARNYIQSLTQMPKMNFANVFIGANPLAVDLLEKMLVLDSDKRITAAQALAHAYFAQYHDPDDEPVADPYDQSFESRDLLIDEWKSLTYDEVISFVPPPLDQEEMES
# T8 sequence (P15056 whole entry): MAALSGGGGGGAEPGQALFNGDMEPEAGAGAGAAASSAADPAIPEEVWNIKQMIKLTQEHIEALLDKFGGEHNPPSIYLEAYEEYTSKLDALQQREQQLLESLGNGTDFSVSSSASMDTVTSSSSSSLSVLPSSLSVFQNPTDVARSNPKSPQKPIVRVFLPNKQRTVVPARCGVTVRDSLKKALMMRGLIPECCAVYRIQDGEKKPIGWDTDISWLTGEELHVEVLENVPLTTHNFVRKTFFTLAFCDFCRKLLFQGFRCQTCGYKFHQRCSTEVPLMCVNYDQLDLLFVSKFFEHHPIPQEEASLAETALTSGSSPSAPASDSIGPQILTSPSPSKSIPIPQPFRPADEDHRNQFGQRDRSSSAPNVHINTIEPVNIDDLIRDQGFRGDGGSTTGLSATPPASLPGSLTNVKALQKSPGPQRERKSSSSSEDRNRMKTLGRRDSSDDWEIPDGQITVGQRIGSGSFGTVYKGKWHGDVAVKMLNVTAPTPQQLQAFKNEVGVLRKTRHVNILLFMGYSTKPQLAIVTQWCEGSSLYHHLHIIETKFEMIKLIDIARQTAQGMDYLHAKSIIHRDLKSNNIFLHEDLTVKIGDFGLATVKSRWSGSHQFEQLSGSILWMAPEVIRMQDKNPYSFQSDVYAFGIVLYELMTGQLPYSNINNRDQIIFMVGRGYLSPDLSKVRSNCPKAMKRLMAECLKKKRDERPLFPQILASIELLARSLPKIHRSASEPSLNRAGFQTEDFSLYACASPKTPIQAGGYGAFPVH
# T2 sequence (P06239 whole entry): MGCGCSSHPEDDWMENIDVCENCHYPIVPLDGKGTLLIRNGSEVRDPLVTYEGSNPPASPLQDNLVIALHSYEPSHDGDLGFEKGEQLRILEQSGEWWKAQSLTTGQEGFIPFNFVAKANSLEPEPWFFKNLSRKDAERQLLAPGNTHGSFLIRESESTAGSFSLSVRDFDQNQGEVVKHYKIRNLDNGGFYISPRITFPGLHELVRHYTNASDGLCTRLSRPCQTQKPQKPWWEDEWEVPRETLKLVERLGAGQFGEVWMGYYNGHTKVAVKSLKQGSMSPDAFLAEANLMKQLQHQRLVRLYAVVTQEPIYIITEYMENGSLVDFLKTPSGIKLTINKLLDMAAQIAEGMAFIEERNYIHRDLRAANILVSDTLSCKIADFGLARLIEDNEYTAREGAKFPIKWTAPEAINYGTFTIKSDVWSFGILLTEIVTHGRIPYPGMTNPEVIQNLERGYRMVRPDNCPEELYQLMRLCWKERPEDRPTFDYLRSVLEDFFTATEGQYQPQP
SMILES,"% inhibition of control activity, PI3K (Eurofins) (PI3K [1])","% control, LCK (DiscoverX) (LCK) [% control]","% control, ErbB2 (DiscoverX) (ErbB2 [2]) [% control]","% control, VEGFR2 (DiscoverX) (VEGFR2) [% control]","% control, p38α (DiscoverX) (p38α) [% control]","% control, CDK2 (DiscoverX) (CDK2) [% control]","% control, EGFR (DiscoverX) (EGFR [3]) [% control]","% control, BRAF (DiscoverX) (BRAF [4]) [% control]","% control, MET (DiscoverX) (MET) [% control]","% inhibition of control activity, ErbB2 (Eurofins) (ErbB2 [5])","% inhibition of control activity, EGFR (Eurofins) (EGFR [6])","% inhibition of control activity, BRAF (Eurofins) (BRAF [7])","% control, PI3K (DiscoverX) (PI3K [8]) [% control]",kinase binding spectrum (panel of 290 kinases; TKs),fraction of kinases bound in a panel (panel of 290 kinases; panel of 290 kinases)
Cc1nc(Nc2ncc(C(=O)Nc3c(C)cccc3Cl)s2)cc(N2CCN(CCO)CC2)n1 [dasatinib],–,–,–,–,–,–,–,–,–,–,–,–,–,binds to a broad spectrum of TKs with high affinity,–
CCN(CC)CCNC(=O)c1c(C)[nH]c(/C=C2\C(=O)Nc3ccc(F)cc32)c1C [Sunitinib],–,–,–,–,–,–,–,–,–,–,–,–,–,–,more than 50%
COCCCNC(=O)c1nc2c3c4c(sc3ncn2n1)CCC[C@H]4C [DS66846],4.6 (7.7) % inhibition,100,96,100,100,100,100,100,92,-2.5 (1.6) % inhibition,14.5 (8.6) % inhibition,-18.7 (11.9) % inhibition,100,–,–
CCOCCCNC(=O)c1nc2c3c4c(sc3ncn2n1)CC[C@@H](C)C4 [DS82066],3.6 (2.3) % inhibition,100,90,100,93,100,92,83,100,-1.4 (0.8) % inhibition,12.6 (1.9) % inhibition,-18.5 (1.8) % inhibition,89,–,–

# Further lines, with some results ahead:
"% inhibition of control activity, PI3K (Eurofins) (PI3K [1])","% control, LCK (DiscoverX) (LCK) [% control]","% control, ErbB2 (DiscoverX) (ErbB2 [2]) [% control]","% control, VEGFR2 (DiscoverX) (VEGFR2) [% control]","% control, p38α (DiscoverX) (p38α) [% control]","% control, CDK2 (DiscoverX) (CDK2) [% control]","% control, EGFR (DiscoverX) (EGFR [3]) [% control]","% control, BRAF (DiscoverX) (BRAF [4]) [% control]","% control, MET (DiscoverX) (MET) [% control]","% inhibition of control activity, ErbB2 (Eurofins) (ErbB2 [5])","% inhibition of control activity, EGFR (Eurofins) (EGFR [6])","% inhibition of control activity, BRAF (Eurofins) (BRAF [7])","% control, PI3K (DiscoverX) (PI3K [8]) [% control]",SMILES,kinase binding spectrum (panel of 290 kinases; TKs),fraction of kinases bound in a panel (panel of 290 kinases; panel of 290 kinases)
1.4 (0.1) % inhibition,100,100,100,91,100,93,100,87,-3.3 (0.5) % inhibition,17.3 (0.1) % inhibition,-19.6 (11.8) % inhibition,100,CC(C)n1ccc(=O)nc1SC1CCN(c2ccccc2F)C1=O (stereo not shown) [DS99367],–,–
1.8 (4.4) % inhibition,100,100,98,100,100,100,99,90,-3.4 (1.0) % inhibition,2.4 (14.7) % inhibition,-13.7 (10.5) % inhibition,100,Cc1ccc(-n2cnnn2)cc1NC(=O)NC1CC1 [DS44245],–,–
17.4 (0.4) % inhibition,100,96,100,97,100,87,89,90,-0.6 (1.0) % inhibition,3.2 (10.7) % inhibition,-33.6 (18.1) % inhibition,100,O=C(Oc1ccc2c3c(c(=O)oc2c1)CCC3)c1cccc(Cl)c1 [DS76514],–,–
